Assay: in vitro
Settings: African green monkey

Row | SMILES | CC50
1 | O=c1[nH]cnc2c([C@@H]3N[C@H](CO)[C@@H](O)[C@H]3O)c[nH]c12 [forodesine] | > 100 µM
2 | CC(C)Nc1nc2cc(Cl)c(Cl)cc2n1[C@H]1O[C@@H](CO)[C@H](O)[C@@H]1O [maribavir] | > 100 µM
3 | CC(C)C(=O)OC[C@H]1O[C@@H](n2ccc(NO)nc2=O)[C@H](O)[C@@H]1O [molnupiravir] | > 100 µM
4 | COc1nc(N)nc2c1ncn2[C@@H]1O[C@H](CO)[C@@H](O)[C@@H]1O [nelarabine] | > 100 µM
5 | CCC(CC)COC(=O)[C@H](C)N[P@](=O)(OC[C@H]1O[C@@](C#N)(c2ccc3c(N)ncnn23)[C@H](O)[C@@H]1O)Oc1ccccc1 [remdesivir] | > 100 µM
6 | CC(C)=CCNc1ncnc2c1ncn2[C@@H]1O[C@H](CO)[C@@H](O)[C@H]1O [riboprine, N^6-(2-Isopentenyl)adenosine] | > 100 µM
7 | OC[C@H]1O[C@@H](n2cnc3c(N[C@@H]4CCOC4)ncnc32)[C@H](O)[C@@H]1O [tecadenoson] | > 100 µM
8 | Nc1ncnc2c1ncn2[C@@H]1O[C@H](CO)[C@@H](O)[C@@H]1O [vidarabine, Arabinosyladenine] | > 100 µM

— publication PMC9631343 (ACS Bio & Med Chem Au, 2022)
